Measured values taken from ChEMBL document CHEMBL1212708, “Sialic acid dependence in rotavirus host cell invasion” (Nat Chem Biol, 2009).
One block for each compound: values may come before it. Calls of active or inactive are those of the source. The calls are words filed in the database; no cut-off is given here.

Tests used:
[1] = system: Rotavirus; assay: Binding affinity to sialidase-insensitive Rotavirus Wa VP8 protein at 0.46 mM by STD NMR spectral analysis
[2] = system: Rotavirus; assay: Binding affinity to […] Rotavirus CRW-8 VP8 at 1.2 mM by STD NMR spectrum
[3] = system: Rotavirus; assay: Binding affinity to sialidase-insensitive Rotavirus Wa VP8 at 3.5 mM by STD NMR spectrum
[4] = system: Rotavirus; assay: Binding affinity to […] Rotavirus CRW-8 VP8 at 3.5 mM by STD NMR spectrum
[5] = system: MA104; assay: Inhibition of Rotavirus Wa VP8-mediated binding to monkey MA104 cells at 10 mM after 1 hr by immunofluorescence assay; type: cell-based
[6] = system: MA104; assay: Inhibition of Rotavirus CRW-8 VP8-mediated binding to monkey MA104 cells at 10 mM after 1 hr by immunofluorescence assay; type: cell-based
[7] = system: MA104; assay: Inhibition of Rotavirus CRW-8 VP8-mediated binding to monkey MA104 cells at 10 mM after 1 hr by immunofluorescence assay in presence of sialidase; type: cell-based
[8] = system: MA104; assay: Inhibition of Rotavirus Wa VP8-mediated binding to monkey MA104 cells at 10 mM after 1 hr by immunofluorescence assay in presence of sialidase; type: cell-based
[9] = system: MA104; assay: Inhibition of Rotavirus Wa VP8-mediated infectivity in monkey MA104 cells at 10 mM after 1 hr by immunofluorescence assay in presence of sialidase; type: cell-based
[10] = system: MA104; assay: Inhibition of Rotavirus CRW-8 VP8-mediated infectivity in monkey MA104 cells at 10 mM after 1 hr by immunofluorescence assay; type: cell-based
[11] = system: MA104; assay: Inhibition of Rotavirus CRW-8 VP8-mediated infectivity in monkey MA104 cells at 10 mM after 1 hr by immunofluorescence assay in presence of sialidase; type: cell-based
[12] = system: MA104; assay: Inhibition of Rotavirus Wa VP8-mediated infectivity in monkey MA104 cells at 10 mM after 1 hr by immunofluorescence assay; type: cell-based

Activity [1]: inactive
Activity [2]: Active
SMILES: CC(=O)N[C@H]1[C@@H](O[C@@H]2[C@H](O[C@]3(C(=O)O)C[C@H](O)[C@@H](NC(C)=O)[C@H]([C@H](O)[C@H](O)CO)O3)[C@@H](O)[C@H](O[C@H]3[C@H](O)[C@@H](O)C(O)O[C@@H]3CO)O[C@@H]2CO)O[C@H](CO)[C@H](O)[C@@H]1O[C@@H]1O[C@H](CO)[C@H](O)[C@H](O[C@]2(C(=O)O)C[C@H](O)[C@@H](NC(C)=O)[C@H]([C@H](O)[C@H](O)CO)O2)[C@H]1O (some centres not stated)

Activity [3]: Active
Activity [4]: inactive
SMILES: CC(=O)N[C@H]1[C@@H](O[C@@H]2[C@H](O[C@]3(C(=O)O)C[C@H](O)[C@@H](NC(C)=O)[C@H]([C@H](O)[C@H](O)CO)O3)[C@@H](O)[C@H](O[C@H]3[C@H](O)[C@@H](O)C(O)O[C@@H]3CO)O[C@@H]2CO)O[C@H](CO)[C@H](O)[C@@H]1O[C@@H]1O[C@H](CO)[C@H](O)[C@H](O)[C@H]1O (some centres not stated)

SMILES: CO[C@]1(C(=O)O)C[C@H](O)[C@@H](NC(C)=O)[C@H]([C@H](O)[C@H](O)CO)O1
inhibition [5]: 45%
inhibition [6]: 35%
Activity [7]: inactive
inhibition [8]: Active
inhibition [9]: 26%
inhibition [10]: 52%
Activity [11]: inactive
inhibition [12]: inactive
